The source made the active and inactive calls. The rule behind the calls is not given here.
Legend:
[1] = system: L6; test: Hypoglycemic activity in rat L6-GLUT4myc myotubes assessed as increase in 2-[3H]-deoxyglucose uptake at 5 uM after 16 hrs by scintillation counter; format: functional, cell-based
[2] = system: L6; test: Cytotoxicity against rat L6-GLUT4myc myotubes assessed as change in protein level at 25 uM after 16 hrs; format: cell-based; conditions: l6, 16 h
[3] = system: L6; test: Induction of IRS-1 mRNA expression in rat L6-GLUT4myc myotubes at 25 uM after 16 hrs by semiquantitative RT-PCR analysis; format: functional, cell-based
[4] = system: L6; test: Induction of GLUT4 translocation from intracellular compartment into plasma membrane of rat L6-GLUT4myc myotubes after 16 hrs by O-phenylenediamide based enzymatic assay; format: functional, cell-based
[5] = system: L6; test: Induction of GLUT4 translocation from intracellular compartment into plasma membrane of rat L6-GLUT4myc myotubes at 10 uM after 16 hrs by O-phenylenediamide based enzymatic assay; format: functional, cell-based
[6] = system: L6; test: Induction of GLUT4 translocation from intracellular compartment into plasma membrane of rat L6-GLUT4myc myotubes at 25 uM by O-phenylenediamide based enzymatic assay relative to control; format: functional, cell-based; conditions: TDE = time-dependent effect
[7] = system: L6; test: Increase of insulin-stimulated GLUT4 translocation from intracellular compartment into plasma membrane of rat L6-GLUT4myc myotubes at 25 uM after 16 hrs by O-phenylenediamide based enzymatic assay; format: functional, cell-based
[8] = system: L6; test: Hypoglycemic activity in rat L6-GLUT4myc myotubes assessed as increase in 2-[3H]-deoxyglucose uptake at 25 uM after 16 hrs by scintillation counter relative to control; format: functional
[9] = system: L6; test: Induction of GLUT4 translocation from intracellular compartment into plasma membrane of rat L6-GLUT4myc myotubes at 25 uM after 16 hrs by O-phenylenediamide based enzymatic assay relative to control; format: functional
[10] = system: L6; test: Increase of insulin-stimulated GLUT4 translocation from intracellular compartment into plasma membrane of rat L6-GLUT4myc myotubes at 25 uM after 16 hrs by O-phenylenediamide based enzymatic assay in presence of PI3K inhibitor wortmannin; format: functional, cell-based
[11] = system: L6; test: Cytotoxicity against rat L6-GLUT4myc myotubes assessed as cell viability at 25 uM after 16 hrs by MTT assay; format: cell-based; conditions: l6, 16 h
[12] = system: L6; test: Induction of GLUT4 mRNA expression in rat L6-GLUT4myc myotubes at 25 uM after 16 hrs by semiquantitative RT-PCR analysis; format: functional, cell-based
[13] = system: L6; test: Hypoglycemic activity in rat L6-GLUT4myc myotubes assessed as increase in 2-[3H]-deoxyglucose uptake after 16 hrs by scintillation counter; format: functional, cell-based
[14] = system: L6; test: Induction of PKB mRNA expression in rat L6-GLUT4myc myotubes at 25 uM after 16 hrs by semiquantitative RT-PCR analysis; format: functional, cell-based

With O=C(O)C1C[C@@H](O)CCN1 (some centres undefined) the Activity [1] was “Active”, the Activity [2] was “Non-toxic” and the Activity [3] was “Active”. The Activity [4] was “Dose-dependent effect”, the Activity [5] was “Active” and the Activity [6] was “tde”. For the same compound, the Activity [7] was “Active”, the “fold change (FC)” value [8] was 1.25 and the Activity [9] was 130%. The Activity [10] was “inactive”, the Activity [11] was “Non-toxic” and the Activity [12] was “inactive”. For the same compound, the Activity [13] was “Dose-dependent effect” and the Activity [14] was “inactive”.

Source: ChEMBL document CHEMBL2146391, “Glucose uptake stimulatory effect of 4-hydroxypipecolic acid by increased GLUT 4 translocation in skeletal muscle cells” (Bioorg Med Chem Lett, 2012)
